The values that follow come from PMC9516332 (Frontiers in Oncology, 2022).

What all share (assay): Kinase panel profiling at 1 µmol/L (MSA or IMAP), percentage inhibition
Holding throughout (format): biochemical

The target in assay [1] is panel of 255 wild-type kinases (Homo sapiens, UniProt O14578). Particulars: kinase CRIK; 1 µmol/L single concentration; read-out: %-inhibition at 1 µmol/L, CRIK.
Assay [2] deals with T1, panel of 255 wild-type kinases (Homo sapiens, UniProt P51817).
T1 sequence (P51817 1-358): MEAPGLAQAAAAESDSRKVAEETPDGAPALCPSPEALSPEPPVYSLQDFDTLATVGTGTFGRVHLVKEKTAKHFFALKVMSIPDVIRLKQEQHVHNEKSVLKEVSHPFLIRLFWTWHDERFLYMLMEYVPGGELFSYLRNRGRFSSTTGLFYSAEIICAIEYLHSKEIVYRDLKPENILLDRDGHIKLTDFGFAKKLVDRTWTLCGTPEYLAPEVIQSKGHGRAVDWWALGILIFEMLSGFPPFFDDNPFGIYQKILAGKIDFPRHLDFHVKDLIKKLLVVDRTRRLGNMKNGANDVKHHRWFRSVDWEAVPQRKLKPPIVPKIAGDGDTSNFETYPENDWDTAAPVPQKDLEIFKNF
To be noted: kinase PRKX; 1 µmol/L single concentration; read-out: %-inhibition at 1 µmol/L, PRKX.

Assay [3] deals with T2, panel of 255 wild-type kinases (Homo sapiens, UniProt Q9UF33).
T2 sequence (Q9UF33 23-1036): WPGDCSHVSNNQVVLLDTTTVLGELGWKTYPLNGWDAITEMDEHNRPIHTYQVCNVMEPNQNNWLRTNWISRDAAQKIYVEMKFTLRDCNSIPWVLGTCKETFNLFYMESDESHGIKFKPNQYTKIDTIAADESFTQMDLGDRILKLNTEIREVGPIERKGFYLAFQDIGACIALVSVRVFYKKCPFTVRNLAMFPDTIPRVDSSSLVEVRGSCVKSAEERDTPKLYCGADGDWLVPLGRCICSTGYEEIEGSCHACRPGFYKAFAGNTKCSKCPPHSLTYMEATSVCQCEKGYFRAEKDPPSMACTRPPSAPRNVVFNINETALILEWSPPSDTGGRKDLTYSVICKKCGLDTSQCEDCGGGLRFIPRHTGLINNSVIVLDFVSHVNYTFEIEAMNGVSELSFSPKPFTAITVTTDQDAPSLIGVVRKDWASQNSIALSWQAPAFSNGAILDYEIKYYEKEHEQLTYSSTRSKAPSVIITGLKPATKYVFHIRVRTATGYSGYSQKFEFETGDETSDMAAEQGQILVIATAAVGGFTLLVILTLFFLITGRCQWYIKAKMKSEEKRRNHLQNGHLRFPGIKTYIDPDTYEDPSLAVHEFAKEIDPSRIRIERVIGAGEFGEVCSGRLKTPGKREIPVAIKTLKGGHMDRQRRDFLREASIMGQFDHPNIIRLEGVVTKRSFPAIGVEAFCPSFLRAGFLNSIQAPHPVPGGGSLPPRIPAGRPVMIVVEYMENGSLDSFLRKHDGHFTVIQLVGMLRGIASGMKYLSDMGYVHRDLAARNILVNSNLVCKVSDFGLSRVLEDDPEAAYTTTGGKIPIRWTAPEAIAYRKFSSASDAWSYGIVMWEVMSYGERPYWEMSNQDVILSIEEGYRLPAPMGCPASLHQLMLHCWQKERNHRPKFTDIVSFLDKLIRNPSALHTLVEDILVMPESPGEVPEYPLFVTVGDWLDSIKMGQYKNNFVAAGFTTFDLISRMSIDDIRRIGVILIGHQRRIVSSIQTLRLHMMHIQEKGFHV
To be noted: kinase EPHA6; 1 µmol/L single concentration; read-out: %-inhibition at 1 µmol/L, EPHA6.

Assay [4] has as its target T3, panel of 255 wild-type kinases (Homo sapiens, UniProt Q13237).
T3 sequence (Q13237 1-762): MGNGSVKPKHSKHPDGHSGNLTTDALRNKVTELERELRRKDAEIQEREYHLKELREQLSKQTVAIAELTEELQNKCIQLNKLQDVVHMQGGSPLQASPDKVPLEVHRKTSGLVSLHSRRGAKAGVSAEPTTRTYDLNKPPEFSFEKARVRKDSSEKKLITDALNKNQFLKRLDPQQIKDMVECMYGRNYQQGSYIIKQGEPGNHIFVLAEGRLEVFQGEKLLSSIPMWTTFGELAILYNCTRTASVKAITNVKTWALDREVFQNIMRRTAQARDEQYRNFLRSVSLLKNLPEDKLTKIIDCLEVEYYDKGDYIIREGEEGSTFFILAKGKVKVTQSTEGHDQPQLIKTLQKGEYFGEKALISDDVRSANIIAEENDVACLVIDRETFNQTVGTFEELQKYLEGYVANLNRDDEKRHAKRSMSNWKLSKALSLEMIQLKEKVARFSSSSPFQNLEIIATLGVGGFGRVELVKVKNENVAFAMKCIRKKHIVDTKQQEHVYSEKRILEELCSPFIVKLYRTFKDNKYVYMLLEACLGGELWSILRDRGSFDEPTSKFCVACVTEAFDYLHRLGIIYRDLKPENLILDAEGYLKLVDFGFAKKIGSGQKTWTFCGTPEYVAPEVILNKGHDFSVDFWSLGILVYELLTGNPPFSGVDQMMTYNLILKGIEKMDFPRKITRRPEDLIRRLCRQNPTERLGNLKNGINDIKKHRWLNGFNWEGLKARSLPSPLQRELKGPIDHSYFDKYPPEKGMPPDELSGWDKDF
To be noted: CGK2 kinase assay; 1 µmol/L single concentration; read-out: %-inhibition CGK2.

For assay [5], the target named is panel of 255 wild-type kinases (Homo sapiens, UniProt P35968). Particulars: read-out: %-inhibition at 1 µmol/L, KDR.
Setting [6] is: kinase KDR, 1 µmol/L single concentration.

SMILES strings stand for the structures. Where two headings read alike, the source gives them in different places.

On to `CCN1C(=O)N(c2c(F)c(OC)cc(OC)c2F)Cc2cnc3[nH]c(CN4CCOCC4)cc3c21` [pemigatinib], for which the inhibition at 1 µM is -4.34% in assay [1]; -1.75% in assay [2]; -3% in assay [3]; 1.58% in assay [4]; 96% in assay [5].
On to `FC(F)(F)c1ccc(CNc2ccc(Cc3c[nH]c4ncc(Cl)cc34)cn2)cn1` [pexidartinib], for which the inhibition at 1 µM was -1.09% in assay [1]; 15% in assay [2]; 18% in assay [3]; 17% in assay [4]; 81% in assay [5] (setting [6]).
`CO[C@]1(C(=O)N[C@@H](C)c2ccc(-n3cc(F)cn3)nc2)CC[C@H](c2nc(C)cc(Nc3cc(C)[nH]n3)n2)CC1` [pralsetinib]: the inhibition at 1 µM in assay [1] was -0.417%; in assay [2], -0.557%; in assay [3] it was 87%; in assay [4], 25%; in assay [5] (setting [6]), 95%.
For the compound `CCn1c(=O)c(-c2cc(NC(=O)Nc3ccccc3)c(F)cc2Br)cc2cnc(NC)cc21` [ripretinib], the inhibition at 1 µM was determined as 20% in assay [1]; 0.705% in assay [2]; 99% in assay [3]; 0.547% in assay [4]; 111% in assay [5] (setting [6]).
Consider `COc1ccc(CN2C3CC2CN(c2ccc(-c4cc(OCC(C)(C)O)cn5ncc(C#N)c45)cn2)C3)cn1` [selpercatinib], for which the inhibition at 1 µM in assay [1] was -4.75%; in assay [2], 55%; in assay [3], 98%; in assay [4], 16%; in assay [5] it was 99%.
For the compound `Cn1cnc2c(F)c(Nc3ccc(Br)cc3Cl)c(C(=O)NOCCO)cc21` [selumetinib], the inhibition at 1 µM in assay [1] was -2.33%; in assay [2], -4.53%; in assay [3], 1%; in assay [4] it was -1.64%; in assay [5] (setting [6]), 2.42%.
With `Cc1cc(Nc2ncnc3ccc(NC4=NC(C)(C)CO4)cc23)ccc1Oc1ccn2ncnc2c1` [tucatinib], the inhibition at 1 µM is -2.49% in assay [1]; -1.54% in assay [2]; 2.19% in assay [3]; -0.162% in assay [4]; 4.29% in assay [5] (setting [6]).
With `C=CC(=O)N1CCC([C@@H]2CCNc3c(C(N)=O)c(-c4ccc(Oc5ccccc5)cc4)nn32)CC1` [zanubrutinib], the inhibition at 1 µM in assay [1] was -2.4%; in assay [2], -1%; in assay [3] it was 14%; in assay [4] it was -0.389%; in assay [5] (setting [6]), 11%.
